According to US10273218B2, “BCL-3 inhibitors” (University College Cardiff Consultants Limited, priority 2014, dated 2019):

Tests used:
[1] = test system: MDA-MB-231-Luc highly metastatic human breast cancer cells; test: in vivo metastasis mouse model, disease free survival; parameters: species or system Nude mice; details: 3.5 mg/Kg once daily for 10 days; MDA-MB-231-Luc i.v.; monitored up to 49 days
Procedure: Nude mice are injected i.v. with 200,000 highly metastatic human breast cancer cells expressing luciferase (MDA-MB-231-Luc) then are given a compound of Formula (I) or Formula (Ia) once daily for about 10 days and are monitored for tumours by total body scan using Xenogen-IVIS. Mice with a luciferase signal above background in repeated scans in any part of their torso are scored as having metastatic disease. Total light emission in the abdominal region is quantified at time points up to 49 days post surgery and plotted as mean total light yield.
Nude mice were injected i.v. with 200,000 highly metastatic human breast cancer cells expressing luciferase (MDA-MB-231-Luc) then given 3.5 mg/Kg of compound 12, reference compound A, or Reference compound B once daily for 10 days and monitored for tumours by total body scan using Xenogen-IVIS. Mice with a luciferase signal above background in repeated scans in any part of their torso were scored as having metastatic disease. Total light emission in abdominal region was quantified at time points up to 49 days post surgery and plotted as mean total light yield. Control n=12, Reference compound A n=10, Reference compound B n=4; compound 12 n=4.

[2] = test system: human breast cancer cell line MDA-MB-436; test: transwell (Boyden chamber) cell migration assay after scratch; type: cell-based; details: 10 micromolar compound, 24 hours before and 24 hours in transwell chambers, versus DMSO, compound 12, MEKi
Procedure: The migration of cells in the presence of a compound of Formula (I) or Formula (Ia) is determined using a Scratch assay.
For the Scratch Assay, 1 micromolar solutions of the compounds are prepared. In six well plates, the complete growth media of the seeded cells (density […] in 20 mL) is removed and replaced by 3 mL of a fresh one containing compounds of Formula (I) or Formula (Ia). Media is used as a negative compound.
After a 24 h incubation period at 5% CO2 and 37° C., the media is removed and a scratch is performed in each well. 1 mL of fresh complete growth media is used to wash the well. After its removal, 3 mL of a solution containing a compound of Formula (I) or Formula (Ia) is added in each well in triplicate. Pictures of the wells are then taken. After 24 h, pictures of the wells are again taken. […]
The cell migration assay used was the transwell (Boyden chamber) assay of cell migration in human breast cancer cell line MDA-MB-436. After a scratch was performed in each well the cells were incubated with a 10 micromolar solution of compound for 24 hours prior to passage into transwell chambers where they were maintained in the presence of compound for a further 24 hours before assessment of migration (measured by total fluorescence on opposing surface of transwell membrane following staining). Reduced fluorescence directly correlates with number of cells migrated. […]

[3] = test system: human breast cancer MDA-MB-231 xenograft; test: in vivo metastasis mouse Model 1 (seeding and early colonization of circulating tumour cells); parameters: species or system mice; details: 3.5 mg/Kg intraperitoneal daily for 10 days, relative luminescence of thoracic region
Procedure: In all experiments, each compound was administered by intraperitoneally at 3.5 mg/kg.
One model (Model 1) studied the effect of the compound's ability to inhibit the seeding and early colonization of circulating tumour cells at distal sites, most commonly in the lungs and liver. Human tumour cell lines were injected into the bloodstream of recipient mice, followed by single daily intraperitoneal injections of the compound (3.5 mg/kg in 1% DMSO) for 10 consecutive days. Tumour burden was monitored longitudinally for up to 8 weeks in vivo by live luminescence imaging, and subsequently histology performed on affected organs at the end of the experiment.
Model 1 tested the effect of Bcl3i compounds to inhibit the seeding and early colonization of circulating tumour cells at distal sites, most commonly in the lungs and liver. Human tumour cell lines were injected into the bloodstream of recipient mice, followed by single daily intraperitoneal injections of Bcl3 inhibitor (3.5 mg/kg in 1% DMSO) for 10 consecutive days. Tumour burden was monitored longitudinally for up to 8 weeks in vivo by live luminescence imaging, and subsequently histology performed on affected organs at the end of the experiment.
The X axis represents the number of days after xenograft and the Y axis is the relative luminescence of the thoracic region by Xenon IVIS scanning of mice following injection of d-luciferin for 10 minutes.
MDA-MB-231 human breast cancer cells were used in each of the three xenograft models of metastatic breast cancer.

Structure (SMILES) | disease free survival [1] [%] | reduction of cell migration (total fluorescence on opposing surface of transwell membrane) [2] | potency of effect in Model 1 relative to compound 28 [3] | inhibition of metastasis / tumour burden in Model 1 ([3]; versus controls and compound 12)
O=C(Nc1ccccc1C(=O)NCCN1CCOCC1)c1ccccc1F [Reference compound A] | 70 |  |  | 
COc1ccc(C(=O)Nc2ccccc2C(=O)NCCN2CCOCC2)cc1 [Reference compound B] | 50 |  |  | 
O=C(Nc1ccccc1C(=O)NCCN1CCOCC1)c1ccc2ccccc2c1 [Compound 31] |  | more effective at reducing cell migration than the known potent cell migration inhibitor MEKi | more potent effects than compound 28 | equivalent inhibition of metastasis in vivo to compound 12
